Results as given in PubChem BioAssay AID248 (DTP/NCI, 2004).
Where “and” joins values, the source holds several entries; their conditions need not be identical. Identical values can stand only once. Inconclusive results and toxic doses are left out. No stated cut-off is given here; in the data, active means T/C of 150% or more; inactive means T/C below 125%. Square brackets hold non-standard residues; d marks the D form. Peptide text beside a SMILES is read from it. * marks the point of attachment. ξ: configuration not given here. Pentanoyl = CCCCC(=O)*; ξP = O=C(O)C1CCCN1; Ava = NCCCCC(=O)O

Test system: L1210 leukemia ip in BDF1 mice, survival T/C
Assay: NCI In Vivo Anticancer Drug Screen. Data for tumor model L1210 Leukemia (intraperitoneal) in B6D2F1 (BDF1) mice
Conditions: endpoint: mean survival time, higher = longer survival
Outline: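 Read-out is survival time, reported as the treated-group measurement over the vehicle-control measurement.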

[1] = dose: 50.0 mg/kg/injection, schedule: Q04DX003 (ip), vehicle: saline with Tween-80
[2] = dose: 100.0 mg/kg/injection, schedule: Q04DX003 (ip), vehicle: saline with Tween-80
[3] = dose: 100.0 mg/kg/injection, schedule: Q01DX001 (ip), vehicle: carboxymethylcellulose (CMC)
[4] = dose: 200.0 mg/kg/injection, schedule: Q01DX001 (ip), vehicle: carboxymethylcellulose (CMC)
[5] = dose: 400.0 mg/kg/injection, schedule: Q01DX001 (ip), vehicle: carboxymethylcellulose (CMC)
[6] = dose: 200.0 mg/kg/injection, schedule: Q04DX003 (ip), vehicle: saline with Tween-80
[7] = dose: 400.0 mg/kg/injection, schedule: Q04DX003 (ip), vehicle: saline with Tween-80
[8] = dose: 100.0 mg/kg/injection, schedule: Q01DX009 (ip), vehicle: Klucel (hydroxypropylcellulose) (HPC)
[9] = dose: 200.0 mg/kg/injection, schedule: Q01DX009 (ip), vehicle: Klucel (hydroxypropylcellulose) (HPC)
[10] = dose: 400.0 mg/kg/injection, schedule: Q01DX009 (ip), vehicle: Klucel (hydroxypropylcellulose) (HPC)
[11] = dose: 50.0 mg/kg/injection, schedule: Q01DX001 (ip), vehicle: carboxymethylcellulose (CMC)
[12] = dose: 100.0 mg/kg/injection, schedule: Q04DX003 (ip), vehicle: Klucel (hydroxypropylcellulose) (HPC)
[13] = dose: 200.0 mg/kg/injection, schedule: Q04DX003 (ip), vehicle: Klucel (hydroxypropylcellulose) (HPC)
[14] = dose: 400.0 mg/kg/injection, schedule: Q04DX003 (ip), vehicle: Klucel (hydroxypropylcellulose) (HPC)
[15] = dose: 50.0 mg/kg/injection, schedule: Q01DX009 (ip), vehicle: saline with Tween-80
[16] = dose: 100.0 mg/kg/injection, schedule: Q01DX009 (ip), vehicle: saline with Tween-80
[17] = dose: 200.0 mg/kg/injection, schedule: Q01DX009 (ip), vehicle: saline with Tween-80
[18] = dose: 100.0 mg/kg/injection, schedule: Q01DX001 (ip), vehicle: saline
[19] = dose: 200.0 mg/kg/injection, schedule: Q01DX001 (ip), vehicle: saline
[20] = dose: 400.0 mg/kg/injection, schedule: Q01DX001 (ip), vehicle: saline
[21] = dose: 100.0 mg/kg/injection, schedule: Q04DX002 (ip), vehicle: saline
[22] = dose: 200.0 mg/kg/injection, schedule: Q04DX002 (ip), vehicle: saline
[23] = dose: 50.0 mg/kg/injection, schedule: Q01DX009 (ip), vehicle: Klucel (hydroxypropylcellulose) (HPC)
[24] = dose: 100.0 mg/kg/injection, schedule: Q04DX003 (ip), vehicle: saline
[25] = dose: 200.0 mg/kg/injection, schedule: Q04DX003 (ip), vehicle: saline
[26] = dose: 400.0 mg/kg/injection, schedule: Q04DX003 (ip), vehicle: saline
[27] = dose: 100.0 mg/kg/injection, schedule: Q01DX009 (ip), vehicle: saline
[28] = dose: 200.0 mg/kg/injection, schedule: Q01DX009 (ip), vehicle: saline
[29] = dose: 400.0 mg/kg/injection, schedule: Q01DX009 (ip), vehicle: saline

Measured: T/C

N#CC1(Cc2ccc(OCc3ccccc3)c(OCc3ccccc3)c2)c2ccccc2C=CN1C(=O)c1ccccc1 (stereo unspecified)
inactive: dose: 25.0 mg/kg/injection, schedule: Q04DX003 (ip), vehicle: saline with Tween-80 100 % of control | [1] 91 % of control | [2] 89 % of control

C/C(=N/OC(=O)N(C)C)c1ccccc1
inactive: [3] 104 % of control | [4] 101 % of control | [5] 90 % of control

O=C(N/N=C\c1ccccc1Cl)C(=O)N/N=C\c1ccccc1Cl
inactive: [2] 94 % of control | [6] 94 % of control | [7] 88 % of control

O=C1c2ccccc2C(=O)N1Cc1c(Cl)cccc1[N+](=O)[O-]
inactive: [8] 107 % of control | [9] 103 % of control | [10] 92 % of control

Cc1ccc2ccc(/C=N/Nc3ccc4cccc(O)c4n3)c(O)c2n1
inactive: [3] 88 % of control | [5] 88 % of control

CCOP(=O)(Nc1ccc2c(c1)Cc1cc(Cl)ccc1-2)OCC
inactive: [11] 97 % of control | [3] 105 % of control | [4] 97 % of control | [5] 92 % of control

OC1COC(c2ccco2)OC1 (stereo unspecified) (tested in a mixture with another compound)
inactive: [8] 94 % of control | [12] 102 % of control | [9] 105 % of control | [13] 101 % of control | [14] 102 % of control

CSc1ccc(OC(C)=O)cc1
inactive: [15] 94 % of control | [16] 91 % of control | [17] 102 % of control

Clc1ccc(Cl)c(/C=C/c2ccc(Cl)c(Cl)c2)c1
inactive: dose: 1.56 mg/kg/injection, schedule: Q01DX009 (ip), vehicle: Klucel (hydroxypropylcellulose) (HPC) 97 % of control | dose: 3.12 mg/kg/injection, schedule: Q01DX009 (ip), vehicle: Klucel (hydroxypropylcellulose) (HPC) 95 % of control | dose: 6.25 mg/kg/injection, schedule: Q01DX009 (ip), vehicle: Klucel (hydroxypropylcellulose) (HPC) 92 % of control and 100 % of control | [12] 97 % of control

Clc1ccc(N=Cc2ccccc2)cc1
inactive: [8] 104 % of control | [12] 95 % of control | [9] 103 % of control | [13] 96 % of control | [10] 98 % of control | [14] 104 % of control

CCOC(=O)Nc1cc2c(c(NC(=O)OCC)n1)N=C(CN(C)c1ccccc1)CN2
inactive: dose: 12.5 mg/kg/injection, schedule: Q01DX009 (ip), vehicle: saline with Tween-80 100 % of control | dose: 25.0 mg/kg/injection, schedule: Q01DX009 (ip), vehicle: saline with Tween-80 105 % of control | [15] 114 % of control | dose: 88.0 mg/kg/injection, schedule: Q01DX001 (ip), vehicle: saline with Tween-80 105 % of control | dose: 100.0 mg/kg/injection, schedule: Q01DX001 (ip), vehicle: saline with Tween-80 106 % of control | dose: 133.0 mg/kg/injection, schedule: Q01DX001 (ip), vehicle: saline with Tween-80 97 % of control | dose: 200.0 mg/kg/injection, schedule: Q01DX001 (ip), vehicle: saline with Tween-80 113 % of control

CCCCCCCCC(=O)Nc1cccc(OC(=O)NC)c1
inactive: [2] 94 % of control | [6] 96 % of control | [7] 90 % of control

O=C1CCCCc2ccc([N+](=O)[O-])cc21
inactive: dose: 50.0 mg/kg/injection, schedule: Q01DX001 (ip), vehicle: other 86 % of control | dose: 100.0 mg/kg/injection, schedule: Q01DX001 (ip), vehicle: other 98 % of control | dose: 200.0 mg/kg/injection, schedule: Q01DX001 (ip), vehicle: other 96 % of control | dose: 400.0 mg/kg/injection, schedule: Q01DX001 (ip), vehicle: other 88 % of control

Cc1c2cnccc2c(C)c2c1c1ccccc1n2CCOC(=O)c1ccccc1
inactive: [15] 88 % of control | [16] 98 % of control and 88 % of control | [2] 100 % of control | [17] 93 % of control | [6] 97 % of control | dose: 400.0 mg/kg/injection, schedule: Q01DX009 (ip), vehicle: saline with Tween-80 95 % of control | [7] 91 % of control

COc1cc(C)c2c(OC)ccc(OC)c2n1
inactive: [18] 94 % of control | [19] 97 % of control | [20] 103 % of control

O=N[C@H]1C2CC([C@@H]1Cl)[C@@H]1CC=C[C@H]21 (stereo partly specified)
inactive: [11] 95 % of control | [3] 101 % of control | [4] 95 % of control

C[C@@H]1C[C@@]2(C)[C@@H](CC[C@@H]3[C@@H]2CC[C@]2(C)[C@@H](O)CC[C@@H]32)CC1=O
inactive: dose: 100.0 mg/kg/injection, schedule: Q01DX Z (sc), vehicle: steriod suspending solution 105 % of control | dose: 200.0 mg/kg/injection, schedule: Q01DX Z (sc), vehicle: steriod suspending solution 108 % of control | dose: 400.0 mg/kg/injection, schedule: Q01DX Z (sc), vehicle: steriod suspending solution 105 % of control | dose: 800.0 mg/kg/injection, schedule: Q01DX Z (sc), vehicle: steriod suspending solution 105 % of control

CCC(C)(O)C(=O)O (stereo unspecified)
inactive: [21] 114 % of control | [22] 114 % of control

CN(CCC(=O)c1cccc2ccccc12)Cc1ccccc1
inactive: [23] 98 % of control | [8] 97 % of control | [12] 100 % of control | [9] 92 % of control | [13] 91 % of control | [10] 95 % of control | [14] 100 % of control

Cc1ccc2c(ccc(/C=C\c3cc(C)c4cccnc4c3O)[n+]2C)c1
inactive: [3] 114 % of control

CN(C(=O)COc1ccc([N+](=O)[O-])cc1Cl)c1ccc(S(=O)(=O)F)cc1
inactive: [24] 104 % of control | [25] 95 % of control | [26] 96 % of control

CCCCN(CCCC)/C(=C/C(=O)OC)C(=O)OC
inactive: [12] 94 % of control | [13] 100 % of control | [14] 94 % of control

COc1cc(N)c2ncccc2c1SC
inactive: [27] 108 % of control | [24] 93 % of control | [28] 107 % of control | [25] 95 % of control | [29] 116 % of control | [26] 102 % of control

c1ccc(COc2ccccn2)cc1
inactive: [23] 95 % of control | [8] 97 % of control | [12] 98 % of control | [13] 98 % of control

COC1OC2COC(c3ccccc3)OC2C(O)C1N (stereo unspecified)
inactive: [1] 93 % of control | [2] 98 % of control

CCCCC(CC)C1N(C)CCCN1C (stereo unspecified)
inactive: [2] 92 % of control | [6] 98 % of control

CCCCC(=O)NCC(=O)N1CCCC1C(=O)NCCCCC(=O)OC (stereo unspecified) (Pentanoyl-Gly-[ξP]-[Ava]-OMe)
inactive: [18] 98 % of control | [19] 95 % of control | [20] 95 % of control

CCC1(C)N=C(C)C(C)S1 (stereo unspecified)
inactive: [2] 111 % of control | [6] 100 % of control | [7] 100 % of control

O=C(O)C(O)C1CCCCC1 (stereo unspecified)
inactive: [3] 91 % of control | [4] 104 % of control | [5] 94 % of control

CO/N=C(\C)CSS(=O)(=O)OC
inactive: [21] 93 % of control | [22] 96 % of control | dose: 400.0 mg/kg/injection, schedule: Q04DX002 (ip), vehicle: saline 86 % of control

CC1CCC(O)C1O (stereo unspecified)
inactive: [27] 105 % of control | [24] 94 % of control | [28] 105 % of control | [25] 97 % of control | [29] 102 % of control | [26] 97 % of control

Cc1noc(C)c1CC1(c2ccccc2)CCCCC1=O (stereo unspecified)
inactive: [8] 93 % of control | [9] 95 % of control | [10] 93 % of control

ClCCNCc1cccc(Nc2ccnc3cc(Cl)ccc23)c1
inactive: dose: 75.0 mg/kg/injection, schedule: Q01DX001 (ip), vehicle: carboxymethylcellulose (CMC) 103 % of control | dose: 150.0 mg/kg/injection, schedule: Q01DX001 (ip), vehicle: carboxymethylcellulose (CMC) 95 % of control

CC(=O)c1cccc(NC(=O)Nc2ccc(I)cc2)c1
inactive: [8] 97 % of control | [9] 96 % of control | [10] 97 % of control

c1ccc(-c2ccns2)cc1
inactive: [11] 89 % of control | [3] 89 % of control | [4] 93 % of control
